Results taken from article PMC12106615, “Population pharmacokinetics of colistin sulfate in critically ill patients based on NONMEM” (Scientific Reports, 2025).
Counter-ions that a name gives are not always drawn. Bridge positions count the residues as written; N and C are the ends. Square brackets hold non-standard residues; d marks the D form. Peptide text beside a SMILES is read from it. * marks the point of attachment. X1 = CC[C@H](C)CCCCC(=O)*; Dab = NCC[C@H](N)C(=O)O

Key:
[1] = Population pharmacokinetic (PPK) model of colistin sulfate, NONMEM, two-compartment with first-order elimination; type: in vivo, human
Protocol: PPK analyses were performed using NONMEM version 7.5 (Icon Development Solutions, Ellicott City, MD, USA) and Pirana version 3.0. Ggplot2 version 3.5.1 package in R software (version 4.1.3, R-project.org) and Xpose version 4.3.2 packages were used to generate line plots and diagnostic plots, respectively.
One- and two-compartment structural models with first-order elimination characteristics of colistin sulfate were constructed using NONMEM software. Between-subject variability (BSV) was assessed using an exponential function. Within-subject variability (WSV) was assessed by additive, proportional, or combined (additive plus proportional) models, while model with the smallest variability represented the best ones. The base model was chosen according to diagnostic plots and goodness-of-fit criteria, including improvement of the OFV and precision and plausibility of parameter estimation. The factors influencing fixed effects were screened based on our previous study. Covariates were included in the base models in a stepwise manner, and testing was performed by using the following statistical criteria: ΔOFV > 3.84, P < 0.05. The covariate was considered to have a significant influence at ΔOFV > 3.84 and retained in the model or eliminated otherwise. All covariates with significant influence on models were then incorporated into the base models to construct full regression models. The full regression models were then subjected to reverse elimination. The included covariates were tested using stricter statistical criteria (ΔOFV > 6.63, P < 0.01), and covariates showing a small influence on the models were eliminated, thereby yielding the final model.
Goodness-of-fit plots, nonparametric bootstrap, and pc-VPC were used to evaluate the final model and parameter estimates. A nonparametric bootstrap procedure was utilized to assess the performance and stability of the final model. Random sampling and individual replacement were used to generate 1000 replicate datasets. The median and 95% CI values of the final model parameters obtained using bootstrap validation were then compared, and the predictive performance of the model was validated. The dataset was simulated 1000 times using the $SIMULATION block in NONMEM. The 90% CI values for the 5 th, 50 th, and 95 th percentiles of the simulated concentrations were calculated. The time curves were then plotted after the last dose and compared with the observed concentrations for prediction and variability correction using pc-VPC.

[2] = Clinical outcome (14-day mortality) of patients receiving intravenous colistin sulfate; type: in vivo, human; conditions: 178 critically ill patients, mostly combination therapy
Description: (§1) The retrospective study subjects were patients admitted to Beijing Electric Power Hospital, Beijing, China, between May 2022 and May 2024. The study design conformed to the principles of the Declaration of Helsinki, and the study was approved by the Ethics Research Committee of Beijing Electric Power Hospital (approval no: n090327). Written informed consent was obtained from all patients or their legal representatives. In clinical practice, adult patients who had received intravenous colistin sulfate (Specification: 0.5 MU; Asia Pioneer Pharmaceutical Co., Ltd., Shanghai, China) with at least one measurement of colistin sulfate concentration were eligible for inclusion. The inclusion criteria were as follows: (1) age ≥ 18 years, (2) patients who had received colistin sulfate treatment, and (3) patients with at least one measurement of colistin sulfate concentration. The exclusion criteria were as follows: (1) patients who died within 24 h after receiving colistin sulfate treatment, (2) patients who received nebulized colistin sulfate and intrathecal colistin sulfate, and (3) patients who also received continuous renal replacement therapy during colistin sulfate treatment. […] The RIFLE criteria (risk, injury, failure, loss, and end-stage kidney disease), estimated with exclusion of the urinary output criterion, were used for detection and stratification of acute kidney injury.

[3] = Nephrotoxicity / acute kidney injury by RIFLE criteria; type: in vivo, human; conditions: 178 critically ill patients, empirical intravenous colistin sulfate; RIFLE criteria without urinary output criterion
Description: as §1

[4] = 14 patients with successful treatment; ref Yu et al.[14]; cited from earlier work
Protocol: The steady-state plasma concentration (Css.avg) of these 129 patients was 0.93 ± 0.35 mg/L, which was inconsistent with the value (2.0–2.4 mg/L) jointly recommended by the multidisciplinary expert consensus[17] on the rational clinical use of colistin in China. This consensus considered that the in vitro antimicrobial activit ...

[5] = previous studies; ref [14],[25]–[29]; cited from earlier work
Description: Advanced age, the presence of multiple coexisting diseases, severe infections, low fluid replacement volume, and exposure to combination therapy with multiple drugs are recognized as risk factors for the development of acute kidney injury associated with colistin sulfate treatment. If colistin sulfate is the only factor considered, a Css level of ...

[6] = 178 critically ill patients, 364 concentrations, intravenous
[7] = nonparametric bootstrap, 1000 replicate datasets

SMILES: CC[C@H](C)CCCCC(=O)N[C@@H](CCN)C(=O)N[C@H](C(=O)N[C@@H](CCN)C(=O)N[C@H]1CCNC(=O)[C@H]([C@@H](C)O)NC(=O)[C@H](CCN)NC(=O)[C@H](CCN)NC(=O)[C@H](CC(C)C)NC(=O)[C@@H](CC(C)C)NC(=O)[C@H](CCN)NC1=O)[C@@H](C)O [colistin sulfate] (X1-[Dab]T[Dab][Dab][Dab][dL]L[Dab][Dab]T; lactam 4-C)
- tvQ, typical value of inter-compartmental clearance, final model estimate [1, 6]: 1.63 L/h
- tvV2, typical value of volume of peripheral compartment distribution, final model estimate [1, 6]: 109 L
- tvV1, typical value of volume of central compartment distribution, final model estimate ([1]; 178 critically ill patients, 364 concentrations, intravenous, weight as covariate): 49.7 L
- dVdWT, exponential parameter coefficient of WT to V1, final model estimate ([1]; final PPK model): 1.2
- clearance ([1]; human, plasma, 178 critically ill patients, 364 concentrations, intravenous, CrCL as covariate, read-out: tvCL, typical value of central compartment clearance, final model estimate (converted)): 44.3 mL/min
- dCLdCrCL, bootstrap median [1, 7]: 0.466
- dVdWT, bootstrap median [1, 7]: 1.28
- tvCL, bootstrap median [1, 7]: 2.67 L/h
- tvQ, bootstrap median [1, 7]: 1.67 L/h
- tvV1, bootstrap median [1, 7]: 50.04 L
- tvV2, bootstrap median [1, 7]: 103.65 L
- 14-day mortality rate [2]: 27.53%
- Acute kidney injury (nephrotoxicity) incidence [3]: 11.8%
- Css.avg of colistin sulfate [4]: 1730 ± 980 ng/mL
- Incidence rate of nephrotoxicity induced by colistin sulfate [5]: less than 21.25%
